Experimental data from ChEMBL document CHEMBL1148186, “Structure of Benthophoenin, a New Free Radical Scavenger Produced by Streptomyces prunicolor” (J Nat Prod, 1993).
In brackets after ≈: the same amount, converted by molar mass.

What was measured:
[1] = Antioxidant activity assessed as inhibition of AAPH-induced rat erythrocytes hemolysis; format: functional, cell-based; conditions: erythrocyte
[2] = Antioxidant activity assessed as free radical scavenging activity; format: functional

Compound: CC(C)=CCC/C(C)=C/CN1c2cc(C(=O)c3ccccc3)ccc2Nc2c(C(=O)O)cc(C(=O)c3ccccc3)cc21 [BENTHOPHOENIN]
- IC50 [1]: 0.8 µg/mL (≈ 1.4 µM)
- IC50 [2]: 0.15 µg/mL (≈ 0.263 µM)

Compound: VITAMIN E
- IC50 [2]: 10.8 µg/mL
